Assay results: patent US7214505B1, “Cell-based assay for the detection of toxic analytes” (priority 1999, dated 2007)

Assays:
[1] = test system: Vibrio fischeri; assay: Modified Microtox test, toxicant adsorbed onto silica gel then added to bacterial suspension; conditions: FIGS. 1 and 2, 30 minutes incubation
Experimental: Briefly the Microtox® tests used for this study first involve rehydration of freeze-dried luminescent Vibrio fischeri bacteria, i.e. the Microtox® reagent.
The reconstituted bacterial suspension is added to a series dilution of sample in 2% NaCl and incubated for 15° C. for 0.5–15 minutes. The dilutions can be modified to give any desired concentration of sample, and the volume of reagent used per test can also be varied.
After incubation, bioluminescence is measured in a suitable photometer, such as a Deltatox® photometer or that in the Microtox® Model 500 Analyzer.
Data is recorded in terms of decrease luminescence over time.
Generally, these tests are carried out in the presence of an adsorbent which is referred to as using a modified Microtox® test.
In one embodiment of the invention, the solid-phase adsorbent is added to samples of toxicants and left for 30 minutes at ambient temperature. The amount of solid adsorbent and the concentrations of toxicant used are varied.
During this time, rehydration of the freeze-dried Microtox® bacteria as an aqueous suspension is performed, and it is left to stabilize at 15° C. for 15 minutes. […]
At the same time, a control sample of bacteria is monitored for comparison. […]
After 30 minutes of incubation, the bioluminescence is measured using a photometer, and data is recorded in terms of decrease of luminescence over time.

[2] = test system: Vibrio fischeri; assay: Microtox test with bacteria immobilized on silica gel (bacteria/silica mixture); assay type: cell-based; conditions: FIGS. 3, 4 & 5; silica gel
Experimental: For initial testing of such a bacteria/silica mixture, rehydration of freeze-dried luminescent Vibrio fischeri Microtox® reagent is carried out as before, and 4 aliquots are taken. One aliquot of the resultant suspension is mixed with 0.5 g of silica gel, although the amount of silica gel can be varied. After the bacteria are adsorbed onto the silica gel, the resultant mixture is used as the bioluminescent reagent in toxicity assays. Two of the other aliquots are used as controls (with and without silica gel), and the third is tested with toxicant alone.

[3] = test system: Vibrio fischeri; assay: Toxicity assay with freeze-dried (stabilized) silica-based bacterial reagent vs standard Microtox reagent; assay type: cell-based; conditions: 10 ppm malathion; FIG. 5
Experimental: Stabilization of the bacteria used in the standard Microtox® test is performed by freeze-drying, and the effects of stabilization on such a bacteria-silica mixture were also investigated. A bacteria-silica mixture at a specific bacteria to silica ratio is subjected to freeze-drying at −30° C. for 6 hours under a vacuum, i.e. 0.1 hPa. Thereafter, the temperature is ramped up to +15° C. at increments of 10° C. per 15 minutes, retaining the vacuum, and then held at +15° C. for 8 hours.
Tests are then run to compare this freeze-dried mixture with the standard Microtox® freeze-dried reagent.

## Oc1ccccc1 [phenol]
[1]
  toxicity effect (effect on luminescence) when toxicant is adsorbed onto a solid surface, compared to aqueous toxicant: increased
[2]
  toxic effect of aqueous toxicant on bioluminescence with bacteria immobilized by adsorption onto a solid surface, compared to free bacteria: enhanced

## CCOC(=O)CC(SP(=S)(OC)OC)C(=O)OCC (centres unmarked) [malathion]
[3]
  % toxic effect with stabilized silica-based reagent compared to standard Microtox reagent: increased
[1]
  toxicity effect (effect on luminescence) when toxicant is adsorbed onto a solid surface, compared to aqueous toxicant: increased
[2]
  toxic effect of aqueous toxicant on bioluminescence with bacteria immobilized by adsorption onto a solid surface, compared to free bacteria: enhanced
